How the values were obtained:
Homo sapiens = organism: Homo sapiens; test: Selectivity index, ratio of IC50 for COMT (unknown origin) (test compound)/IC50 for FTO (unknown origin) (test compound) to IC50 for COMT (entacapone)/IC50 for FTO (entacapone)
[1] = molecular target: Alpha-ketoglutarate-dependent dioxygenase FTO (Homo sapiens, UniProt Q9C0B1); test: Inhibition of FTO (unknown origin) assessed as reduction in demethylation by measuring N6-mA and A level incubated for 2 hrs by HPLC-MS/MS analysis
Chain of Alpha-ketoglutarate-dependent dioxygenase FTO (Q9C0B1 whole entry): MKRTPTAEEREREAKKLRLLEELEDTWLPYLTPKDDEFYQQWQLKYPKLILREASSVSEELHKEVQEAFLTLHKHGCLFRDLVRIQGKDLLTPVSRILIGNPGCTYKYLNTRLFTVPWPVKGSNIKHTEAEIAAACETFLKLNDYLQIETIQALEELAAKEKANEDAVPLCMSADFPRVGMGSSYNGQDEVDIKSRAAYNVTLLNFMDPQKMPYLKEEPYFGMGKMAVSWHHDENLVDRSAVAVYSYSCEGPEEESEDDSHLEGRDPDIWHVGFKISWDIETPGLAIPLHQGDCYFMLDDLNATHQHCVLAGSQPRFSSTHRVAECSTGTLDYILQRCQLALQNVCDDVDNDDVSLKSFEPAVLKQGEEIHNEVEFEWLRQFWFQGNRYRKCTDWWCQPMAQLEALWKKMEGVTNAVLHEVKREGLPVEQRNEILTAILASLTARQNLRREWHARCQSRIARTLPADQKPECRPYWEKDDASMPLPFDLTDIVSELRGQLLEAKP

Ratio IC50 (Homo sapiens) | IC50 [1] | Structure (SMILES)
1.65 |  | N#C/C(=C\c1cc(O)c(O)c([N+](=O)[O-])c1)C(=O)N1CCC1
 | 3 µM | CCN(CC)C(=O)/C(C#N)=C/c1cc(O)c(O)c([N+](=O)[O-])c1 [ENTACAPONE]
